In the experiment the target is T1, cannabinoid CB1 (Homo sapiens, UniProt P21554).
T1 construct: purchased
The experiment is described as follows: Competition binding assay for cannabinoid CB1 affinity (3H-CP55,940 displacement). Conditions: membranes from cells expressing the receptor, 0.5 nM 3H-CP55,940; Ki by Cheng-Prusoff; read-out: Ki values as measured in the above assay. The procedure:
Non-specific binding was defined in the presence of 10 μM CP55,940. For saturation studies, concentrations of ^3H—CP55,940 ranging from 0.1-5 nM were incubated with membranes in the presence and absence of 10 μM CP55,940. Assays were terminated after incubation for 1½ hours by rapid filtration onto 0.3% polyethylenamine treated GF/C filterplates using a BRANDEL cell harvester. The plates were dried and MICROSCINT scintillation cocktail was added, after which the bound radioactivity was quantified using a TOPCOUNT scintillation counter.
The dissociation constant (Kd) of ^3H—CP55,940 at the CB1 and CB2 receptor were determined by plotting specific binding at each concentration of radioligand, and analysis by non-linear regression. For competition studies, the concentration of each drug that inhibited 50 percent of ^3H—CP55,940 binding (IC50) was determined by non-linear regression analysis of the radioligand displacement curves. Affinity constants (K) were calculated using the equation derived by Cheng and Prusoff (1973), defined as: IC50/1+[conc. ligand/Kd].

The values that follow come from US20100197564A1, “DIARYL MORPHOLINES AS CB1 MODULATORS” (Schering Corporation, priority 2007, published 2010).

The Ki is a dissociation constant, usually derived from enzyme kinetics or from competition with a known ligand.

T1 sequence (P21554 whole entry): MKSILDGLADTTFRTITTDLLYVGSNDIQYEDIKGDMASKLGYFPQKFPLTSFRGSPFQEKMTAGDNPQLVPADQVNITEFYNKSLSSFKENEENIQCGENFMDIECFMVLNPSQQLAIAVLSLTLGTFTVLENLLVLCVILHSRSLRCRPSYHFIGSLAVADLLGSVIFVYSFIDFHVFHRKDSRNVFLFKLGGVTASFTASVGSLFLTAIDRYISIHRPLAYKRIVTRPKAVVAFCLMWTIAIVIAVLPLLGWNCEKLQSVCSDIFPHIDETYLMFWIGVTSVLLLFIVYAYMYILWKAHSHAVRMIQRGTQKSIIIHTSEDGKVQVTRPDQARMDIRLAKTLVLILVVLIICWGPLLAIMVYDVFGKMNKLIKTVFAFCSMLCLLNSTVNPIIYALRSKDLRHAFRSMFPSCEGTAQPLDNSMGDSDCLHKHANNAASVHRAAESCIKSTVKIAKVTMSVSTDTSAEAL

On to `CC(C)(C)OC(=O)CC1OCC(c2ccc(Cl)cc2Cl)N(c2ccc(Cl)cc2)C1=O` (stereo not shown) [Example 2], for which the Ki was at most 800 nM.
As for `Fc1ccc(CC2CN(c3ccc(Cl)cc3)C(c3ccc(Cl)cc3Cl)CO2)cc1F` (stereo not shown) [Example 1], the figure is at most 100 nM; as for `O=S(=O)(NCCC1CN(c2ccc(Cl)cc2)C(c2ccc(Cl)cc2Cl)CO1)c1cccnc1` (stereo not shown) [Example 6], at most 25 nM.
The figure for `NCCC1CN(c2ccc(Cl)cc2)C(c2ccc(Cl)cc2Cl)CO1` (stereo not shown) [Example 5] is at most 800 nM.
